{
  "source": "ChEMBL document CHEMBL5356980",
  "about": "“Linker optimization and activity validation of a cell surface vimentin targeted homo-dimeric peptoid antagonist for lung cancer stem cells” (Bioorg Med Chem, 2024)",
  "key": {"[1]": {"system": "NCI-H1299", "experiment": "Antiproliferative activity against human NCI-H1299 cells assessed as reduction in cell viability incubated for 4 days by MTS assay", "type": "functional, cell-based", "conditions": "for Activity: dose 1000-100000 nM, time 4.0 day"}, "[2]": {"system": "NCI-H460", "experiment": "Inhibition of colony formation in human NCI-H460 cells at 20 uM incubated for 8 days by crystal violet staining based analysis", "type": "functional, cell-based", "conditions": "time 8.0 day"}, "[3]": {"biological_target": "Vimentin (Homo sapiens, UniProt P08670)", "sequence (P08670 whole entry)": "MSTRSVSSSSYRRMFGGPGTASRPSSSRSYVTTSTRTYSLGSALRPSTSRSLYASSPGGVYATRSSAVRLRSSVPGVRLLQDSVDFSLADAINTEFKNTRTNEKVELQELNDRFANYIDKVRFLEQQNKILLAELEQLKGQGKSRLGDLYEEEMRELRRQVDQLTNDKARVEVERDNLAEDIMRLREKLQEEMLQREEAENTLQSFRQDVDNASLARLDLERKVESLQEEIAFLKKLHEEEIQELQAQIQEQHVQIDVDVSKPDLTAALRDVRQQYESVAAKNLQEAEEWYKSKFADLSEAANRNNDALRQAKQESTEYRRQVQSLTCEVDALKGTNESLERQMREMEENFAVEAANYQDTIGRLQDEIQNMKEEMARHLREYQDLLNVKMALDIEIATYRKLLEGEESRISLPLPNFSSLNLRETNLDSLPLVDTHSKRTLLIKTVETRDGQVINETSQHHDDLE", "experiment": "Binding affinity to his-tagged recombinant Vimentin (unknown origin) assessed as dissociation constant by ELISA analysis"}},
  "note": "Calls of active or inactive are those of the source. The rule behind the calls is not given here.",
  "data": [
    {"compound": "COCCN(CC(=O)N[C@H](CCCCN)C(=O)N[C@H](CCSC)C(=O)NCC(=O)NCC(=O)NCCCCC(NC(=O)CNC(=O)CNC(=O)[C@@H](CCSC)NC(=O)[C@@H](CCCCN)NC(=O)CN(CCOC)C(=O)CN(Cc1ccc2c(c1)OCO2)C(=O)CN(CC(C)C)C(=O)CN(CCCCN)C(=O)CN(CCCCN)C(=O)CN(CC(C)C)C(=O)CNc1ccc(C(=O)c2ccccc2)cc1)C(N)=O)C(=O)CN(Cc1ccc2c(c1)OCO2)C(=O)CN(CC(C)C)C(=O)CN(CCCCN)C(=O)CN(CCCCN)C(=O)CN(CC(C)C)C(=O)CNc1ccc(C(=O)c2ccccc2)cc1", "note": "(stereo partly specified)", "values": [
      {"measurement": "Activity", "setting": "[1]", "value": "Dose-Dependent Effect"}
    ]},
    {"compound": "COCCN(CC(=O)N[C@H](CCCCN)C(=O)N[C@H](CCSC)C(=O)NCC(=O)NCCCCC(NC(=O)CNC(=O)CNC(=O)[C@@H](CCSC)NC(=O)[C@@H](CCCCN)NC(=O)CN(CCOC)C(=O)CN(Cc1ccc2c(c1)OCO2)C(=O)CN(CC(C)C)C(=O)CN(CCCCN)C(=O)CN(CCCCN)C(=O)CN(CC(C)C)C(=O)CNc1ccc(C(=O)c2ccccc2)cc1)C(N)=O)C(=O)CN(Cc1ccc2c(c1)OCO2)C(=O)CN(CC(C)C)C(=O)CN(CCCCN)C(=O)CN(CCCCN)C(=O)CN(CC(C)C)C(=O)CNc1ccc(C(=O)c2ccccc2)cc1", "note": "(stereo partly specified)", "values": [
      {"measurement": "Activity", "setting": "[1]", "value": "Dose-Dependent Effect"}
    ]},
    {"compound": "COCCN(CC(=O)N[C@H](CCCCN)C(=O)N[C@H](CCSC)C(=O)NCCOCCOCC(=O)NCCCCC(NC(=O)COCCOCCNC(=O)[C@@H](CCSC)NC(=O)[C@@H](CCCCN)NC(=O)CN(CCOC)C(=O)CN(Cc1ccc2c(c1)OCO2)C(=O)CN(CC(C)C)C(=O)CN(CCCCN)C(=O)CN(CCCCN)C(=O)CN(CC(C)C)C(=O)CNc1ccc(C(=O)c2ccccc2)cc1)C(N)=O)C(=O)CN(Cc1ccc2c(c1)OCO2)C(=O)CN(CC(C)C)C(=O)CN(CCCCN)C(=O)CN(CCCCN)C(=O)CN(CC(C)C)C(=O)CNc1ccc(C(=O)c2ccccc2)cc1", "note": "(stereo partly specified)", "values": [
      {"measurement": "Activity", "setting": "[1]", "value": "Dose-Dependent Effect"}
    ]},
    {"compound": "COCCN(CC(=O)N[C@H](CCCCN)C(=O)N[C@H](CCSC)C(=O)NCCOCCOCC(=O)NCCOCCOCC(=O)NCCCCC(NC(=O)COCCOCCNC(=O)COCCOCCNC(=O)[C@@H](CCSC)NC(=O)[C@@H](CCCCN)NC(=O)CN(CCOC)C(=O)CN(Cc1ccc2c(c1)OCO2)C(=O)CN(CC(C)C)C(=O)CN(CCCCN)C(=O)CN(CCCCN)C(=O)CN(CC(C)C)C(=O)CNc1ccc(C(=O)c2ccccc2)cc1)C(N)=O)C(=O)CN(Cc1ccc2c(c1)OCO2)C(=O)CN(CC(C)C)C(=O)CN(CCCCN)C(=O)CN(CCCCN)C(=O)CN(CC(C)C)C(=O)CNc1ccc(C(=O)c2ccccc2)cc1", "note": "(stereo partly specified)", "values": [
      {"measurement": "Activity", "setting": "[1]", "value": "Dose-Dependent Effect"}
    ]},
    {"compound": "COCCN(CC(=O)N[C@H](CCCCN)C(=O)N[C@H](CCSC)C(=O)NCCCCC(NC(=O)[C@@H](CCSC)NC(=O)[C@@H](CCCCN)NC(=O)CN(CCOC)C(=O)CN(Cc1ccc2c(c1)OCO2)C(=O)CN(CC(C)C)C(=O)CN(CCCCN)C(=O)CN(CCCCN)C(=O)CN(CC(C)C)C(=O)CNc1ccc(C(=O)c2ccccc2)cc1)C(N)=O)C(=O)CN(Cc1ccc2c(c1)OCO2)C(=O)CN(CC(C)C)C(=O)CN(CCCCN)C(=O)CN(CCCCN)C(=O)CN(CC(C)C)C(=O)CNc1ccc(C(=O)c2ccccc2)cc1", "note": "(stereo partly specified)", "values": [
      {"measurement": "inhibition", "setting": "[2]", "value": "Active"},
      {"measurement": "Activity", "setting": "[1]", "value": "Dose-Dependent Effect"},
      {"measurement": "Kd", "setting": "[3]", "value": 1, "unit": "µM"}
    ]},
    {"compound": "COCCN(CC(=O)N[C@H](CCCCN)C(=O)N[C@H](CCSC)C(=O)NCCCCC(NC(=O)CNC(=O)[C@@H](CCSC)NC(=O)[C@@H](CCCCN)NC(=O)CN(CCOC)C(=O)CN(Cc1ccc2c(c1)OCO2)C(=O)CN(CC(C)C)C(=O)CN(CCCCN)C(=O)CN(CCCCN)C(=O)CN(CC(C)C)C(=O)CNc1ccc(C(=O)c2ccccc2)cc1)C(N)=O)C(=O)CN(Cc1ccc2c(c1)OCO2)C(=O)CN(CC(C)C)C(=O)CN(CCCCN)C(=O)CN(CCCCN)C(=O)CN(CC(C)C)C(=O)CNc1ccc(C(=O)c2ccccc2)cc1", "note": "(stereo partly specified)", "values": [
      {"measurement": "Activity", "setting": "[1]", "value": "Dose-Dependent Effect"}
    ]},
    {"compound": "COCCN(CC(=O)N[C@H](CCCCN)C(=O)N[C@H](CCSC)C(=O)NCC(=O)NCCCCC(NC(=O)COCCOCCNC(=O)CNC(=O)[C@@H](CCSC)NC(=O)[C@@H](CCCCN)NC(=O)CN(CCOC)C(=O)CN(Cc1ccc2c(c1)OCO2)C(=O)CN(CC(C)C)C(=O)CN(CCCCN)C(=O)CN(CCCCN)C(=O)CN(CC(C)C)C(=O)CNc1ccc(C(=O)c2ccccc2)cc1)C(N)=O)C(=O)CN(Cc1ccc2c(c1)OCO2)C(=O)CN(CC(C)C)C(=O)CN(CCCCN)C(=O)CN(CCCCN)C(=O)CN(CC(C)C)C(=O)CNc1ccc(C(=O)c2ccccc2)cc1", "note": "(stereo partly specified)", "values": [
      {"measurement": "Activity", "setting": "[1]", "value": "Dose-Dependent Effect"}
    ]},
    {"compound": "COCCN(CC(=O)N[C@H](CCCCN)C(=O)N[C@H](CCSC)C(=O)NCC(=O)NCCCCC(NC(=O)CNC(=O)[C@@H](CCSC)NC(=O)[C@@H](CCCCN)NC(=O)CN(CCOC)C(=O)CN(Cc1ccc2c(c1)OCO2)C(=O)CN(CC(C)C)C(=O)CN(CCCCN)C(=O)CN(CCCCN)C(=O)CN(CC(C)C)C(=O)CNc1ccc(C(=O)c2ccccc2)cc1)C(N)=O)C(=O)CN(Cc1ccc2c(c1)OCO2)C(=O)CN(CC(C)C)C(=O)CN(CCCCN)C(=O)CN(CCCCN)C(=O)CN(CC(C)C)C(=O)CNc1ccc(C(=O)c2ccccc2)cc1", "note": "(stereo partly specified)", "values": [
      {"measurement": "IC50", "setting": "[1]; NCI-H1299, 96 h", "value": 6, "unit": "µM"},
      {"measurement": "Activity", "setting": "[1]", "value": "Dose-Dependent Effect"}
    ]}
  ]
}
